Measured values reported in PMC11292196 (Cancer Research, 2024).
Like-named read-outs stand apart in the source and are kept apart here.

What was measured:
HT1376 cells = test: Cell viability assay; format: cell-based
[1] = test system: KARPAS-422 xenograft tumors; test: KARPAS-422 xenograft efficacy study; format: in vivo; conditions: KARPAS-422 mouse xenograft model; 25 mg/kg, PO, QD
SCaBER cells = test: Cell viability assay; format: cell-based; conditions: read-out: Cisplatin GI50 (d5), 5-day viability assay
UMUC3 cells = test: Cell viability assay; format: cell-based; conditions: read-out: Cisplatin GI50 (d5), 5-day viability assay
T24 cells = test: Cell viability assay; format: cell-based; conditions: read-out: Cisplatin GI50 (d5), 5-day viability assay
SW1710 cells = test: Cell viability assay; format: cell-based; conditions: read-out: Cisplatin GI50 (d5), 5-day viability assay
J82 cells = test: Cell viability assay; format: cell-based; conditions: read-out: Cisplatin GI50 (d5), 5-day viability assay
BFTC905 cells = test: Cell viability assay; format: cell-based; conditions: read-out: Cisplatin GI50 (d5), 5-day viability assay
HT1197 cells = test: Cell viability assay; format: cell-based; conditions: read-out: Cisplatin GI50 (d5), 5-day viability assay
KMBC2 cells = test: Cell viability assay; format: cell-based; conditions: read-out: Cisplatin GI50 (d5), 5-day viability assay
JMSU1 cells = test: Cell viability assay; format: cell-based; conditions: read-out: Cisplatin GI50 (d5), 5-day viability assay
RT4 cells = test: Cell viability assay; format: cell-based; conditions: read-out: Cisplatin GI50 (d5), 5-day viability assay
TCCSUP cells = test: Cell viability assay; format: cell-based; conditions: read-out: Cisplatin GI50 (d5), 5-day viability assay
Cal29 cells = test: Cell viability assay; format: cell-based; conditions: read-out: Cisplatin GI50 (d5), 5-day viability assay
[2] = read-out: GI50, long-term cell viability assay, HT1376 cells, day 18

Cc1ncccc1-c1cnc(NCc2c(F)ccc3c2CCO3)n2cnnc12 [MAK683]
GI50 (HT1376 cells; [2]): 73 nM

CCN(c1cc(-c2ccc(CN3CCOCC3)cc2)cc(C(=O)NCc2c(C)cc(C)[nH]c2=O)c1C)C1CCOCC1 [Tazemetostat]
tumor response [1]: modest TGI

COc1cc(C)[nH]c(=O)c1CN1CCc2c(Cl)cc([C@H](OC)C3COC3)c(Cl)c2C1=O [PF-06821497]
GI50 (HT1376 cells; [2]): ~5 nM

N.N.[Cl][Pt][Cl] [Cisplatin]
GI50 (SCaBER cells): 1200 nM | GI50 (UMUC3 cells): 350 nM | GI50 (T24 cells): 810 nM | GI50 (SW1710 cells): 2150 nM | GI50 (J82 cells): 450 nM | GI50 (BFTC905 cells): 760 nM | GI50 (HT1197 cells): 3.88 µM | GI50 (HT1376 cells; read-out: Cisplatin GI50 (d5), HT1376, 5-day viability assay): 1950 nM | GI50 (KMBC2 cells): 3.64 µM | GI50 (JMSU1 cells): 730 nM | GI50 (RT4 cells): 3.05 µM | GI50 (TCCSUP cells): 220 nM | GI50 (Cal29 cells): 3.01 µM
